# Measurements reported in US11136351B2 (priority 2016, dated 2021).
# Residues, ends and D or L forms follow the SMILES beside them.
# Conditions: pH 1.2
compound,measurement,value
"N=C(N)NCCC[C@@H]1NC(=O)[C@@H]2CCCN2C(=O)[C@H](CC(=O)O)NC(=O)[C@H](CO)NC(=O)[C@H](CO)NC(=O)[C@@H](NC(=O)CN)CSSC[C@@H](C(N)=O)NC1=O [[Ser^3]Vc1.1(1-8)] (HELM PEPTIDE1{G.C.S.S.D.P.R.C.[am]}$PEPTIDE1,PEPTIDE1,2:R3-8:R3$$$V2.0)",stability in simulated gastric fluid,good stability
